{"source": "patent US6486162B2", "about": "“2-{3-[4-(2-t-butyl-6-trifluoromethyl-4-pyrimidinyl)-1- piperazinyl] propylthio}-4-pyrimidinol fumarate” (Abbott Laboratories, priority 1997, dated 2002)", "assay_type_in_all_cases": "physicochemical", "key": {"[1]": {"experiment": "stability against oxidative processes", "details": "compared to the free base", "source_text": "(§1) Furthermore, the fumarate is more soluble in polar solvents such as C1-C6-alkanols than the free base. Because of the altered solubility characteristics, it can also be purified more simply while avoiding physiologically unacceptable solvents."}, "[2]": {"experiment": "solubility tests of the substances", "source_text": "It has a selectivity, Ki D2/Ki D3of 120 (cf. WO 96/02519). The compound is therefore useful for treating disorders which respond to dopamine D3ligands, eg. for treating disorders of the central nervous system, in particular schizophrenia, depressions, neuroses and psychoses. It is additionally useful for treating sleep disturbances and nausea and as antihistamine.\nas §1"}, "[3]": {"experiment": "evaluation of various acid addition salts", "source_text": "Evaluation of various acid addition salts of 2-{3-[4-(2-t-butyl-6-trifluoromethyl-4-pyrimidyl)-1-piperazinyl)propylthio}-4-5 pyrimidinol"}}}
{"compound": "CC(C)(C)c1nc(N2CCN(CCCSc3nccc(O)n3)CC2)cc(C(F)(F)F)n1.O=C(O)/C=C/C(=O)O", "note": "[Fumarate, fumaric acid salt of 2-{3-[4-(2-t-butyl-6-trifluoromethyl-4-pyrimidinyl)-1-piperazinyl]propylthio}-4-pyrimidinol]", "values": [{"measurement": "stability against oxidative processes", "setting": "[1]", "result": "higher stability"}, {"measurement": "solubility in water", "setting": "[2]; compared to that of the free base", "result": "substantially higher solubility"}, {"measurement": "solubility in polar solvents such as C1-C6-alkanols", "setting": "[2]; compared to the free base", "result": "more soluble"}, {"measurement": "Observation: hygroscopicity", "setting": "[3]", "result": "non-hygroscopic salt with definite"}]}
{"compound": "Hydrochloride", "values": [{"measurement": "Observation: stability of the compound in the acidic medium", "setting": "[3]; aqueous solution of the salt is highly acidic", "result": "acidic; the compound is instable in"}]}
{"compound": "Methane sulfonate", "values": [{"measurement": "Observation: crystals are deliquescent and dissolve within", "setting": "[3]", "result": "deliquescent and dissolve within 3 h"}]}
